Data taken from patent publication US10973868B2, “Composition for topical use based on a carnosine-magnesium complex” (Outplay Inc., priority 2016, dated 2021).
Where two headings read alike, the source gives them in different places.

What was measured:
[1] = system: children with autistic spectrum disorders; conditions: after 8 weeks, P<0.05; cited from earlier work
mice = conditions: cited from earlier work
[2] = system: muscle fibres of Rana Temporaria; conditions: 15 mM of carnosine; cited from earlier work
horse fibre types = conditions: cited from earlier work
[3] = aqueous solution; cited from earlier work
[4] = system: adults with chronic schizophrenia; assay: L-carnosine adjunctive treatment in chronic schizophrenia, strategic target detection test; format: in vivo, human; conditions: 2 g/day adjunctive, 3 months, vs placebo
Excerpt: Improved Cognition In Schizophrenia: Targeting glutamatergic dysfunction provides an exciting opportunity to improve cognitive impairment in schizophrenia. One treatment approach has targeted inadequate antioxidant defenses at glutamatergic synapses. […] We conducted a preliminary study to test the hypothesis that L-carnosine, an antioxidant and anti-glycation agent which is co-localized and released with glutamate would improve executive dysfunction, a cognitive domain associated with glutamate. Seventy-five symptomatically stable adults with chronic schizophrenia were randomly assigned to L-carnosine as adjunctive treatment (2 g/day) or a matched placebo in a double-blind manner for 3 months. […] The recommended dosage is 4-6 ml of the exemplary composition of the topical composition illustrated above four times a day applied to all four limbs.

[5] = system: rat extensor digitorum longus muscle fibres; conditions: mechanically skinned fibres; cited from earlier work

## NCCC(=O)N[C@@H](Cc1c[nH]cn1)C(=O)O [carnosine, β-alanyl-L-histidine]
[1]
  Gilliam Autism Rating Scale (total score and Behavior, Socialization, Communication subscales): statistically significant improvements
  Receptive One-Word Picture Vocabulary test: statistically significant improvements
mice
  amount of brain tissue involved in experimentally-produced strokes: significantly reduced
[2]
  Ca^2+ sensitivity: significant increase
Horse fibre types; type I fibres
  contribution to buffering: about 20%
Horse fibre types; type IIb fibres
  contribution to buffering: up to 46%
[3]
  pK of the carboxylic function: 2.6
[4]
  perseverative errors on the strategic target detection test: fewer perseverative errors
  strategic efficiency on the strategic target detection test: significantly improved
[5]
  Ca^2+ release from the sarcoplasmic reticulum: did not affect
  Ca^2+ sensitivity of the contractile components: increase
